The data set concerns CCRIS mutagenicity, Ames/micronucleus/aberration tests. In words: CCRIS mutagenicity studies.
Setting [1] is: Test System: AMES SALMONELLA TYPHIMURIUM, Strain/Indicator: TA98, Metabolic Activation: NONE, Method: PREINCUBATION
Where [2] appears, read: Test System: AMES SALMONELLA TYPHIMURIUM, Strain/Indicator: TA98, Metabolic Activation: RAT, LIVER, S-9, PCB, Method: PREINCUBATION
Setting [3] is: Test System: AMES SALMONELLA TYPHIMURIUM, Strain/Indicator: TA100, Metabolic Activation: NONE, Method: PREINCUBATION
Where [4] appears, read: Test System: AMES SALMONELLA TYPHIMURIUM, Strain/Indicator: TA100, Metabolic Activation: RAT, LIVER, S-9, PCB, Method: PREINCUBATION
[5] abbreviates: Test System: AMES SALMONELLA TYPHIMURIUM, Strain/Indicator: TA98, Metabolic Activation: NONE, Method: STANDARD PLATE.
The mark [6] stands for this setting: Test System: AMES SALMONELLA TYPHIMURIUM, Strain/Indicator: TA100, Metabolic Activation: NONE, Method: STANDARD PLATE.
[7] abbreviates: Test System: AMES SALMONELLA TYPHIMURIUM, Strain/Indicator: TA1535, Metabolic Activation: NONE, Method: PREINCUBATION

Each structure is given as a SMILES string. The source made the active and inactive calls. No rule for the calls is given here.

For the compound `COCc1c(O)cc2c(c1O)C(=O)c1ccccc1C2=O`, the mutagenic call was “active; positive” under setting [1], “active; positive” under setting [2], “active; positive” under setting [3] and “active; positive” under setting [4].

Regarding `Nc1cc([N+](=O)[O-])c(-c2ccccc2)c([N+](=O)[O-])c1`, the mutagenic call under setting [1] was “inactive; negative” and the mutagenic call (Test System: AMES SALMONELLA TYPHIMURIUM, Strain/Indicator: TA98, Metabolic Activation: RAT, LIVER, S-9, KANECHLOR 500, Method: PREINCUBATION) is “active; positive”.

For `CN(C)CCCNc1c2ccccc2nc2c(F)ccc([N+](=O)[O-])c12`, the mutagenic call under setting [5] was “active; positive” and the mutagenic call under setting [6] was “active; positive”.

Regarding `Cc1ccc2c(c1)C(=O)c1ccccc1C2=O`, the mutagenic call by setting is: (Test System: AMES SALMONELLA TYPHIMURIUM, Strain/Indicator: TA97, Metabolic Activation: NONE, Method: STANDARD PLATE) “inactive; negative”; (Test System: AMES SALMONELLA TYPHIMURIUM, Strain/Indicator: TA97, Metabolic Activation: RAT, LIVER, S-9, PCB, Method: STANDARD PLATE) “inactive; negative”; under setting [1], “inactive; negative”; under setting [5], “inactive; negative”; under setting [2], “inactive; negative”; (Test System: AMES SALMONELLA TYPHIMURIUM, Strain/Indicator: TA98, Metabolic Activation: RAT, LIVER, S-9, PCB, Method: STANDARD PLATE) “inactive; negative”. Further, the mutagenic call runs as follows: under setting [3], “inactive; negative”; under setting [6], “inactive; negative”; under setting [4], “inactive; negative”; (Test System: AMES SALMONELLA TYPHIMURIUM, Strain/Indicator: TA100, Metabolic Activation: RAT, LIVER, S-9, PCB, Method: STANDARD PLATE) “inactive; negative”.

For `CCCCCCC[CH2][Sn]1([CH2]CCCCCCC)[O]C(=O)C=CC(=O)[O]1`, the mutagenic call is “inactive; negative” (Test System: AMES SALMONELLA TYPHIMURIUM, Strain/Indicator: TA97, Metabolic Activation: HAMSTER, LIVER, S-9, AROCLOR 1254 (10 OR 30%), Method: PREINCUBATION); “inactive; negative” (Test System: AMES SALMONELLA TYPHIMURIUM, Strain/Indicator: TA97, Metabolic Activation: NONE, Method: PREINCUBATION); “inactive; negative” (Test System: AMES SALMONELLA TYPHIMURIUM, Strain/Indicator: TA97, Metabolic Activation: RAT, LIVER, S-9, AROCLOR 1254 (10 OR 30%), Method: PREINCUBATION); “inactive; negative” (Test System: AMES SALMONELLA TYPHIMURIUM, Strain/Indicator: TA98, Metabolic Activation: HAMSTER, LIVER, S-9, AROCLOR 1254 (10 OR 30%), Method: PREINCUBATION); “inactive; negative” under setting [1]; “inactive; negative” (Test System: AMES SALMONELLA TYPHIMURIUM, Strain/Indicator: TA98, Metabolic Activation: RAT, LIVER, S-9, AROCLOR 1254 (10 OR 30%), Method: PREINCUBATION). Besides, the mutagenic call is, setting by setting: (Test System: AMES SALMONELLA TYPHIMURIUM, Strain/Indicator: TA100, Metabolic Activation: HAMSTER, LIVER, S-9, AROCLOR 1254 (10 OR 30%), Method: PREINCUBATION) “inactive; negative”; under setting [3], “inactive; negative”; (Test System: AMES SALMONELLA TYPHIMURIUM, Strain/Indicator: TA100, Metabolic Activation: RAT, LIVER, S-9, AROCLOR 1254 (10 OR 30%), Method: PREINCUBATION) “inactive; negative”; (Test System: AMES SALMONELLA TYPHIMURIUM, Strain/Indicator: TA1535, Metabolic Activation: HAMSTER, LIVER, S-9, AROCLOR 1254 (10 OR 30%), Method: PREINCUBATION) “inactive; negative”; under setting [7], “inactive; negative”; (Test System: AMES SALMONELLA TYPHIMURIUM, Strain/Indicator: TA1535, Metabolic Activation: RAT, LIVER, S-9, AROCLOR 1254 (10 OR 30%), Method: PREINCUBATION) “inactive; negative”.

Regarding `CC(C)OS(C)(=O)=O`, the mutagenic call (End Point: IN VITRO MICRONUCLEUS, Test System: MOUSE LYMPHOMA L5178Y CELLS, Metabolic Activation: NONE) is “active; positive”; the mutagenic call (End Point: IN VITRO MICRONUCLEUS, Test System: MOUSE LYMPHOMA L5178Y CELLS, Metabolic Activation: RAT, LIVER, S-9) is “active; positive”; the mutagenic call under setting [5] was “active; positive”; the mutagenic call (Test System: AMES SALMONELLA TYPHIMURIUM, Strain/Indicator: TA98, Metabolic Activation: RAT, LIVER, S-9, Method: STANDARD PLATE) was “inactive; negative”; the mutagenic call under setting [3] was “active; positive”; the mutagenic call under setting [6] was “active; positive”. Besides, the mutagenic call was “active; positive” (Test System: AMES SALMONELLA TYPHIMURIUM, Strain/Indicator: TA100, Metabolic Activation: RAT, LIVER, S-9, Method: STANDARD PLATE); “active; positive” under setting [7]; “active; positive” (Test System: CHINESE HAMSTER V-79, Strain/Indicator: V-79/6-THIOGUANINE, Metabolic Activation: NONE, Method: FLASK ASSAY); “active; positive” (Test System: CHO/HGPRT, Strain/Indicator: CHO-K1-BH4, Metabolic Activation: NONE, Method: STANDARD PLATE).

Take `CCCN(CCC)S(=O)(=O)c1ccc(C(=O)O)cc1`: the mutagenic call (Test System: AMES SALMONELLA TYPHIMURIUM, Strain/Indicator: TA98, Metabolic Activation: HAMSTER, LIVER, S-9, AROCLOR 1254 (10%), Method: PREINCUBATION) was “inactive; negative”; the mutagenic call under setting [1] was “inactive; negative”; the mutagenic call (Test System: AMES SALMONELLA TYPHIMURIUM, Strain/Indicator: TA98, Metabolic Activation: RAT, LIVER, S-9, AROCLOR 1254 (10%), Method: PREINCUBATION) is “inactive; negative”; the mutagenic call (Test System: AMES SALMONELLA TYPHIMURIUM, Strain/Indicator: TA100, Metabolic Activation: HAMSTER, LIVER, S-9, AROCLOR 1254 (10%), Method: PREINCUBATION) is “inactive; negative”; the mutagenic call under setting [3] was “inactive; negative”; the mutagenic call (Test System: AMES SALMONELLA TYPHIMURIUM, Strain/Indicator: TA100, Metabolic Activation: RAT, LIVER, S-9, AROCLOR 1254 (10%), Method: PREINCUBATION) was “inactive; negative”. In addition, the mutagenic call is, setting by setting: (Test System: AMES SALMONELLA TYPHIMURIUM, Strain/Indicator: TA1535, Metabolic Activation: HAMSTER, LIVER, S-9, AROCLOR 1254 (10%), Method: PREINCUBATION) “inactive; negative”; under setting [7], “inactive; negative”; (Test System: AMES SALMONELLA TYPHIMURIUM, Strain/Indicator: TA1535, Metabolic Activation: RAT, LIVER, S-9, AROCLOR 1254 (10%), Method: PREINCUBATION) “inactive; negative”; (Test System: AMES SALMONELLA TYPHIMURIUM, Strain/Indicator: TA1537, Metabolic Activation: HAMSTER, LIVER, S-9, AROCLOR 1254 (10%), Method: PREINCUBATION) “inactive; negative”; (Test System: AMES SALMONELLA TYPHIMURIUM, Strain/Indicator: TA1537, Metabolic Activation: NONE, Method: PREINCUBATION) “inactive; negative”; (Test System: AMES SALMONELLA TYPHIMURIUM, Strain/Indicator: TA1537, Metabolic Activation: RAT, LIVER, S-9, AROCLOR 1254 (10%), Method: PREINCUBATION) “inactive; negative”.

With `Oc1ccc2ccc3c4ccccc4ccc3c2c1`, the mutagenic call is “inactive; negative” under setting [5]; “inactive; negative” under setting [6]; “active; positive” (Test System: AMES SALMONELLA TYPHIMURIUM, Strain/Indicator: TA100, Metabolic Activation: RAT, LIVER, S-9, AROCLOR 1254, Method: STANDARD PLATE).

In the case of `NNc1nncc2cccnc12`, the mutagenic call is, setting by setting: under setting [1], “active; positive”; under setting [2], “active; positive”; under setting [3], “active; positive”; under setting [4], “active; positive”.

For the compound `O=[N+]([O-])c1cccc2nc3c([N+](=O)[O-])cccc3nc12`, the mutagenic call is “inactive; negative” (Test System: AMES SALMONELLA TYPHIMURIUM, Strain/Indicator: TA98(NR), Metabolic Activation: NONE, Method: PREINCUBATION) and “inactive; negative” under setting [1].

Consider `CCOC(=O)/C=C/c1ccc([N+](=O)[O-])o1`, for which the mutagenic call under setting [1] is “active; positive”.

On to `c1ccc2sc(SN3CCOCC3)nc2c1`, for which the mutagenic call is, setting by setting: under setting [5], “inactive; negative”; (Test System: AMES SALMONELLA TYPHIMURIUM, Strain/Indicator: TA98, Metabolic Activation: S-9, Method: STANDARD PLATE) “inactive; negative”; under setting [6], “inactive; negative”; (Test System: AMES SALMONELLA TYPHIMURIUM, Strain/Indicator: TA100, Metabolic Activation: S-9, Method: STANDARD PLATE) “inactive; negative”.

Values taken from PubChem BioAssay AID1259407 (Chemical Carcinogenesis Research Information System (CCRIS), 2018).
